Laboratory results from patent US9695155B2, “Herbicidal substituted pyrimidinyloxy benzene compounds” (E. I. DU PONT DE NEMOURS AND COMPANY, priority 2013, dated 2017).

How the values were obtained:
giant foxtail = test: Test A preemergence; format: in vivo, Setaria faberii; settings: for Foxtail, Giant plant response rating: 500 g ai/ha
Procedure, shortened: (§1)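 Greenhouse pot test, loam/sand soil. Formulation: non-phytotoxic solvent mix plus surfactant. Pre: directed spray onto soil after sowing. Post: plants at 1–2 leaf, 2–10 cm. Rated visually vs untreated controls at ~10 d, 0 (no effect) to 100 (complete control).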

morningglory = test: Test A preemergence; format: in vivo, Ipomoea spp.; settings: for Morningglory plant response rating (0 to 100 scale): 125 g ai/ha; for Morningglory plant response rating: 500 g ai/ha, 0 to 100 scale where 0 is no effect and 100 is complete control
Procedure, shortened: as §1

pigweed = test: Test A preemergence; format: in vivo, Amaranthus retroflexus; settings: for Pigweed plant response rating (0 to 100 scale): 125 g ai/ha; for Pigweed plant response rating: 500 g ai/ha, 0 to 100 scale where 0 is no effect and 100 is complete control
Procedure, shortened: as §1

velvetleaf = test: Test A postemergence; format: in vivo, Abutilon theophrasti; settings: 0 to 100 scale where 0 is no effect and 100 is complete control; for Velvetleaf plant response rating: 125 g ai/ha; for Plant response rating, Velvetleaf: 500 g ai/ha
Procedure, shortened: as §1

wheat = test: Test A postemergence; format: in vivo, Triticum aestivum; settings: 0 to 100 scale where 0 is no effect and 100 is complete control; for Wheat plant response rating: 125 g ai/ha; for Plant response rating, Wheat: 500 g ai/ha
Procedure, shortened: as §1

barnyardgrass = test: Test B flooded paddy test; format: in vivo, Echinochloa crus-galli; settings: Flood, 250 g ai/ha; 0 to 100 scale where 0 is no effect and 100 is complete control
Procedure, shortened: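 Compound added straight to paddy water, with pots kept flooded 3 cm above soil, on plants grown to the 2-leaf stage. Visual scoring 0-100 (100 = complete control) against untreated controls after 13 to 15 greenhouse days.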

wheat, winter = test: Test C postemergence; format: in vivo, Triticum aestivum; settings: for Plant response rating (0 to 100), Wheat: 16 g ai/ha, 0 is no effect, 100 is complete control; for Wheat plant response rating: 31 g ai/ha; for Wheat plant response rating / Plant response rating, Wheat: scale 0 to 100 (0 no effect, 100 complete control)
Procedure, shortened: (§2)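 Visual ratings on a 0–100 scale (100 = complete control) were made versus untreated controls after 13–15 greenhouse days. Chemicals in a surfactant-containing non-phytotoxic solvent were applied either preemergence to seeds in loam–sand soil or postemergence to 1- to 4-leaf plants 2–18 cm tall.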

kochia = test: Test C postemergence; format: in vivo, Kochia scoparia; settings: for Plant response rating (0 to 100), Kochia: 16 g ai/ha, 0 is no effect, 100 is complete control; for Kochia plant response rating: 31 g ai/ha; for Kochia plant response rating / Plant response rating, Kochia: scale 0 to 100 (0 no effect, 100 complete control)
Procedure, shortened: as §2

wild oat = test: Test C postemergence; format: in vivo, Avena fatua; settings: for Plant response rating (0 to 100), Oat, Wild: 16 g ai/ha, 0 is no effect, 100 is complete control; for Oat, Wild plant response rating: 31 g ai/ha; for Oat, Wild plant response rating / Plant response rating, Oat, Wild: scale 0 to 100 (0 no effect, 100 complete control)
Procedure, shortened: as §2

chickweed = test: Test C postemergence; format: in vivo, Stellaria media; settings: for Plant response rating (0 to 100), Chickweed: 16 g ai/ha, 0 is no effect, 100 is complete control; for Chickweed plant response rating: 31 g ai/ha; for Chickweed plant response rating / Plant response rating, Chickweed: scale 0 to 100 (0 no effect, 100 complete control)
Procedure, shortened: as §2

[1] = 0 to 100 scale where 0 is no effect and 100 is complete control
[2] = postemergence, visual rating, 13 to 15 days
[3] = 125 g ai/ha, postemergence, visual rating
[4] = Postemergence, 62 g ai/ha, 13 to 15 days

Row | Structure (SMILES) | Foxtail, Giant plant response rating (giant foxtail; [1]) | Morningglory plant response rating (0 to 100 scale) (morningglory) | Morningglory plant response rating (morningglory) | Pigweed plant response rating (0 to 100 scale) (pigweed) | Pigweed plant response rating (pigweed) | Velvetleaf plant response rating (velvetleaf) | Plant response rating, Velvetleaf (velvetleaf) | Wheat plant response rating (wheat) | Plant response rating, Wheat (wheat) | Plant response rating, Barnyardgrass (barnyardgrass) | Plant response rating (0 to 100), Wheat (wheat, winter; postemergence) | Wheat plant response rating (wheat, winter; [2]) | Plant response rating, Wheat (wheat, winter; [3]) | Plant response rating (0 to 100), Kochia (kochia; postemergence) | Kochia plant response rating (kochia; [2]) | Plant response rating, Kochia (kochia; [3]) | Plant response rating (0 to 100), Oat, Wild (wild oat; postemergence) | Oat, Wild plant response rating (wild oat; [2]) | Plant response rating, Oat, Wild (wild oat; [3]) | Plant response rating (0 to 100), Chickweed (chickweed; postemergence) | further results
1 | Clc1cnc(Oc2cccc(Cl)c2-n2cc(I)cn2)nc1 [Compound 181] | 100 | 0 | 30 | 100 | 100 | 100 | 100 | 0 | 30 | 0 | 0 | 0 | 5 | 70 | 100 | 100 | 0 | 5 | 5 | 55 | Foxtail, Giant plant response rating (0 to 100 scale) (giant foxtail; 125 g ai/ha): 90; Plant response rating, Wheat (wheat, winter; Postemergence, 62 g ai/ha): 0; Plant response rating, Kochia (kochia; Postemergence, 62 g ai/ha): 100; Plant response rating, Oat, Wild (wild oat; Postemergence, 62 g ai/ha): 5; Chickweed plant response rating (chickweed; [2]): 75; Plant response rating, Chickweed (chickweed; [3]): 85; Plant response rating, Chickweed (chickweed; Postemergence, 62 g ai/ha): 80
2 | FC(F)c1cnn(-c2c(Cl)cccc2Oc2ncc(Cl)cn2)c1 [Compound 192] | 100 | 30 | 100 | 100 | 100 | 90 | 100 | 0 | 50 | 0 | 0 | 0 | 5 | 30 | 45 | 90 | 0 | 0 | 5 | 45 | Foxtail, Giant plant response rating (0 to 100 scale) (giant foxtail; 125 g ai/ha): 100; Plant response rating, Wheat (wheat, winter; [4]): 5; Plant response rating, Kochia (kochia; [4]): 85; Plant response rating, Oat, Wild (wild oat; [4]): 5; Chickweed plant response rating (chickweed; [2]): 50; Plant response rating, Chickweed (chickweed; [3]): 60; Plant response rating, Chickweed (chickweed; [4]): 70
3 | Fc1cccc(Oc2ncc(Cl)cn2)c1-n1cc(Cl)cn1 [Compound 177] | 100 | 20 | 80 | 100 | 100 | 100 | 100 | 20 | 90 | 30 | 0 | 0 | 5 | 70 | 70 | 95 | 5 | 0 | 30 | 50 | Plant response rating, Foxtail, Giant (giant foxtail; 125 g ai/ha, 0 to 100 scale where 0 is no effect and 100 is complete control): 100; Plant response rating, Wheat (wheat, winter; Postemergence, 62 g ai/ha): 0; Plant response rating, Kochia (kochia; Postemergence, 62 g ai/ha): 90; Plant response rating, Oat, Wild (wild oat; Postemergence, 62 g ai/ha): 10; Chickweed plant response rating (chickweed; [2]): 50; Plant response rating, Chickweed (chickweed; [3]): 85; Plant response rating, Chickweed (chickweed; Postemergence, 62 g ai/ha): 55
